Measurements published in patent US9180193B2, “Antiviral compounds” (Hoffmann-La Roche Inc., priority 2011, dated 2015).

tested on: GT-1a pRLuc H77 1b 75 SI subgenomic replicon cell line (Huh7); assay: HCV GT-1a replicon luciferase reporter assay; type: cell-based; conditions: Hepatitis C virus, GT1A, Huh-7; Renilla luciferase reporter read 72 hours after compound addition; GT-1a H77 replicon cells
Source text: Determination of compounds HCV GT1b inhibitory replicon activity using the replicon luciferase reporter assay
The 2209-23 cell line was developed at Roche by stable transfection of the hepatoma cell line Huh-7 with a GT-1b Con1 subgenomic bicistronic replicon as previously described. Subgenomic replicon cell line was established in cured Huh7 cells, obtained from R. Bartenschlager (J Virol. 2003 March; 77 (5):3007-19) The GT-1a H77 subgenomic replicon vector pRLuc H77 lb 75 SI, was created by replacing the non structural region of the GT-1b Con1 subgenomic replicon by the one of the H77 strain, except for the first 75 amino acids of the NS3 protein that are from GT-1b Con1 strain. (J Virol. 2001 77:5352-59) The GT-1a pRLuc H77 1b 75 SI subgenomic replicon cell line was established in cured Huh7 cells, obtained from R. Bartenschlager. (J Virol. 2003 March; 77 (5):3007-19)
All the subgenomic replicon cell lines were cultured in Dulbecco's Modified Eagle Medium (DMEM-Glutamax™-I; Invitrogen Cat #10569-010). The medium was supplemented with 10% Fetal Bovine Serum (Invitrogen Cat #10082-147), 1% penicillin/streptomycin (Mediatech Cat #30-002-CI) and 500 μg/ml of G418 (Mediatech Cat #30-234-CI). Cells were maintained at 37° C. in a humidified 5% CO2 atmosphere.
2209-23 cells were plated at a cell density of 5000 cells per well in 96 well plates (Becton Dickinson, Cat #35 3296). Cells were plated in 90 μl of Dulbecco's Modified Eagle Medium (DMEM-Glutamax™-I), (Invitrogen Cat #10569-010) medium was supplemented with 5% Fetal Bovine Serum (Invitrogen Cat #10082-147), 1% penicillin/streptomycin (Mediatech Cat #30-002-CI). The pRluc H77 1b 75 SI cells were plated in 96-well plate at 3000 cells/well in DMEM-Glutamax™-I containing 5% FBS and 1% penicillin/streptomycin in 90 μl final volume. Cells were allowed to equilibrate for 24 hours at 37° C. and 5% CO2 at which time compounds were added. Compounds (or medium as a control) were added 24 hours post-plating in 3 fold dilutions at a final DMSO concentration of 1% in 10 ul volume. Renilla luciferase reporter signal was read 72 hours after addition of compounds using the Renilla Luciferase Assay System (Promega, cat # E2820). EC50 values were defined as the compound concentration at which a 50% reduction in the levels of renilla luciferase reporter was observed as compared to control samples in the absence of compound and was determined by non-linear fitting of compound dose-response data. The EC50 was approximated if maximum percentage inhibition was less than 90% and more than 70%.

Row | Compound | EC50 [nM]
1 | COC(=O)N[C@H]1CCC(=O)N2CCC[C@@H](c3ncc(-c4ccc(-c5ccc(-c6cnc([C@@H]7CCCN8C(=O)CC[C@H](NC(=O)OC)C(=O)N78)[nH]6)cc5)cc4)[nH]3)N2C1=O [Compound I-1, [(4S,7S)-4-(5-{4′-[2-((1S,9S)-9-[(Methoxycarbonyl)amino]-6,10-dioxo-octahydro-pyridazino[1,2-a][1,2]diazepin-1-yl)-3H-imidazol-4-yl]-biphenyl-4-yl}-1H-imidazol-2-yl)-6,10-dioxo-octahydro-pyridazino[1,2-a][1,2]diazepin-7-yl]-carbamic acid methyl ester] | 10.6
2 | COC(=O)N[C@H]1CCC(=O)N2CCC[C@@H](c3nc4cc(-c5ccc(-c6cnc([C@@H]7CCCN7C(=O)[C@@H](NC(=O)OC)C(C)C)[nH]6)cc5)ccc4[nH]3)N2C1=O [Compound I-2, {(4S,7S)-4-[5-(4-{2-[(S)-1-((S)-2-Methoxycarbonylamino-3-methyl-butyryl)-pyrrolidin-2-yl]-3H-imidazol-4-yl}-phenyl)-1H-benzoimidazol-2-yl]-6,10-dioxo-octahydro-pyridazino[1,2-a][1,2]diazepin-7-yl}-carbamic acid methyl ester] | 156
3 | COC(=O)N[C@H](C(=O)N1CCC[C@H]1c1ncc(-c2ccc(-c3ccc(-c4cnc([C@@H]5CCCN6C(=O)CC[C@H](NC(=O)OCc7ccccc7)C(=O)N56)[nH]4)cc3)cc2)[nH]1)C(C)C [Compound I-3, {(4S,7S)-4-[5-(4′-{2-[(S)-1-((S)-2-Methoxycarbonylamino-3-methyl-butyryl)-pyrrolidin-2-yl]-3H-imidazol-4-yl}-biphenyl-4-yl)-1H-imidazol-2-yl]-6,10-dioxo-octahydro-pyridazino[1,2-a][1,2]diazepin-7-yl}-carbamic acid benzyl ester] | 2.95
4 | COC(=O)N[C@H]1CCC(=O)N2CCC[C@@H](c3ncc(-c4ccc(-c5cnc6cc(-c7cnc([C@@H]8CCCN8C(=O)[C@@H](NC(=O)OC)C(C)C)[nH]7)ccc6n5)cc4)[nH]3)N2C1=O [Compound I-4, ((4S,7S)-4-{5-[4-(6-{2-[(S)-1-((S)-2-Methoxycarbonylamino-3-methyl-butyryl)-pyrrolidin-2-yl]-3H-imidazol-4-yl}-quinoxalin-2-yl)-phenyl]-1H-imidazol-2-yl}-6,10-dioxo-octahydro-pyridazino[1,2-a][1,2]diazepin-7-yl)-carbamic acid methyl ester] | 0.13
5 | COC(=O)N[C@H]1CCC(=O)N2CCC[C@@H](c3ncc(-c4ccc(-c5ccc(-c6cnc([C@@H]7CC(F)(F)CN7C(=O)[C@@H](NC(=O)OC)C(C)C)[nH]6)cc5)cc4)[nH]3)N2C1=O [Compound I-5, {(4S,7S)-4-[5-(4′-{2-[(S)-4,4-Difluoro-1-((S)-2-methoxycarbonylamino-3-methyl-butyryl)-pyrrolidin-2-yl]-3H-imidazol-4-yl}-biphenyl-4-yl)-1H-imidazol-2-yl]-6,10-dioxo-octahydro-pyridazino[1,2-a][1,2]diazepin-7-yl}-carbamic acid methyl ester] | 0.92
6 | COC(=O)N[C@H]1CCC(=O)N2CCC[C@@H](c3ncc(-c4ccc(-c5ccc(-c6cnc(C7CC8(CCOCC8)CN7C(=O)[C@@H](NC(=O)OC)C(C)C)[nH]6)cc5)cc4)[nH]3)N2C1=O (stereo partly drawn) [Compound I-6, {(4S,7S)-4-[5-(4′-{2-[2-((S)-2-Methoxycarbonylamino-3-methyl-butyryl)-8-oxa-2-aza-spiro[4.5]dec-3-yl]-3H-imidazol-4-yl}-biphenyl-4-yl)-1H-imidazol-2-yl]-6,10-dioxo-octahydro-pyridazino[1,2-a][1,2]diazepin-7-yl}-carbamic acid methyl ester] | 1.5
7 | COC(=O)N[C@H]1CCC(=O)N2CCC[C@@H](c3ncc(-c4ccc(-c5ccc(-c6cnc([C@@H]7CCCN7C(=O)[C@@H](NC(=O)OC)C(C)C)[nH]6)cc5)cc4)[nH]3)N2C1=O [Compound I-7, {(4S,7S)-4-[5-(4′-{2-[(S)-1-((S)-2-Methoxycarbonylamino-3-methyl-butyryl)-pyrrolidin-2-yl]-3H-imidazol-4-yl}-biphenyl-4-yl)-1H-imidazol-2-yl]-6,10-dioxo-octahydro-pyridazino[1,2-a][1,2]diazepin-7-yl}-carbamic acid methyl ester] | 1.1

tested on: not listed separately; assay: in vitro; type: cell-based; conditions: human
Procedure: Determination of Compounds Cytotoxicity Using the HCV GT1b Replicon Cell Line Measuring WST1.
2209-23 cells were plated at a cell density of 5000 cells per well in clear flat-bottom 96 well plate (Becton Dickinson, Cat #35 3075) for cell viability studies. The WST-1 cell proliferation assay (Roche Diagnostic, Cat#11644807001) was used to determine cell viability. Assay plates were set up in the same format as in the replicon assay. After 3 days of compound incubation 10 μl of WST-1 reagent was added to each well for 2 hours at 37° C. and 5% CO2, following manufacturer's instructions. Absorption reading at 450 nm (reference filter at 650 nm) was determined using MRX Revelation microtiter plate reader (Lab System). CC50 values were defined as the compound concentration required for reducing cell viability by 50% as compared to the untreated control in absence of compound and was determined by non-linear fitting of compound dose-response data. Representative assay data can be found in Table II below: […]

Row | Compound | CC50 at 3 days [nM]
8 | COC(=O)N[C@H]1CCC(=O)N2CCC[C@@H](c3ncc(-c4ccc(-c5cnc6cc(-c7cnc([C@@H]8CCCN8C(=O)[C@@H](NC(=O)OC)C(C)C)[nH]7)ccc6n5)cc4)[nH]3)N2C1=O [Compound I-4, ((4S,7S)-4-{5-[4-(6-{2-[(S)-1-((S)-2-Methoxycarbonylamino-3-methyl-butyryl)-pyrrolidin-2-yl]-3H-imidazol-4-yl}-quinoxalin-2-yl)-phenyl]-1H-imidazol-2-yl}-6,10-dioxo-octahydro-pyridazino[1,2-a][1,2]diazepin-7-yl)-carbamic acid methyl ester] | 8160
